Read-outs that look alike come from different tables or passages of the source.
Key:
Format in all cases: cell-based, human
[1] = tested on: AsPC-1 cells (KRAS G12D mutation); experiment: 3D cell proliferation assay (CellTiter Glo-3D), AsPC-1; settings: medium with 2% FBS, read-out: AsPC-1 AP IC50
In short: (§1)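 Cells were seeded at 800 per well in RPMI-1640 containing 2% FBS and left overnight. Compounds in 3.16-fold dilution series were then added at 0.1% DMSO and incubated 5 days at 37 °C. Viability was read by CellTiter-Glo 3D luminescence and IC50 values fitted by four-parameter regression.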

[2] = tested on: p-ERK in NCI-H441 cells (KRAS G12V mutation); experiment: Cell p-ERK assay (HTRF) in NCI-H441 cells; settings: NCI-H441 cells, 3 h compound incubation, HTRF p-ERK T202/Y204, read-out: H441 p-ERK IC50
In short: (§2)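 AsPC-1 (10000/well) or NCI-H441 (20000/well) cells were seeded in RPMI-1640 with 10% FBS, grown overnight, then exposed to 3.16-fold compound dilutions (0.1% DMSO) for 3 h at 37 °C. Lysates were read for phospho-ERK T202/Y204 by HTRF; IC50 came from four-parameter fits of inhibition versus DMSO and blank wells.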

[3] = tested on: NCI-H441 cells; experiment: 3D cell proliferation assay (CellTiter Glo-3D), NCI-H441; settings: medium with 2% FBS, read-out: H441 AP IC50
In short: as §1

[4] = tested on: p-ERK in AsPC-1 cells (KRAS G12D mutation); experiment: Cell p-ERK assay (HTRF) in AsPC-1 cells; settings: AsPC-1 cells, 3 h compound incubation, HTRF p-ERK T202/Y204, read-out: AsPC-1 p-ERK IC50
In short: as §2

[5] = 3D cell proliferation (CellTiter Glo-3D)
[6] = Homo sapiens, ASPC1, 3D cell proliferation (CellTiter Glo-3D)
[7] = Homo sapiens, NCI-H441, 3D cell proliferation (CellTiter Glo-3D)

CO[C@@H](C)c1ncc(OCCN2CCOC3(CC3)C2)cc1-c1c2c3cc(ccc3n1CC(F)(F)F)-c1csc(n1)C[C@H](NC(=O)[C@H]1[C@H](C)[C@@H]1C)C(=O)N1CCC[C@H](N1)C(=O)OCC1(CC1)C2 (atropisomer, axis not shown; (Ra)) [Compound Z380, (1r,2R,3S)—N-((3′S,4′S,Z)—(Ra)-2′-(5-(2-(4-oxa-7-azaspiro[2,5]octan-7-yl)ethoxy)-2-((S)-1-methoxyethyl)pyridin-3-yl)-5′,7′-dioxo-1′-(2,2,2-trifluoroethyl)spiro[cyclopropane-1,10′-8-oxa-2(4,2)-thiazola-1(5,3)-indola-6(1,3)-pyridazinacycloundecaphan]-4-yl)-2,3-dimethylcyclopropane-1-carboxamide]
IC50 [1, 5]: 6.28 nM
IC50 [2]: 3.67 nM
IC50 [3, 5]: 4.75 nM
IC50 [4]: 9.45 nM

CCn1c(-c2cc(C#CCN3CC(F)C3)cnc2[C@H](C)OC)c2c3cc(ccc31)-c1csc(n1)C[C@H](NC(=O)[C@H]1[C@H](C)[C@@H]1C)C(=O)N1CCC[C@H](N1)C(=O)OCC(C)(C)C2 (atropisomer, axis not shown; (Ra)) [Compound Z383-1, (1r,2R,3S)—N-((6^3S,4S,Z)—(Ra)-1^2-(5-(3-(3-fluoroazetidin-1-yl)prop-1-yn-1-yl)-2-((S)-1-methoxyethyl)pyridin-3-yl)-1^1-ethyl-10,10-dimethyl-5,7-dioxo-6^1,6^2,6^3,6^4,6^5,6^6-hexahydro-1^1H-8-oxa-2(4,2)-thiazola-1(5,3)-indola-6(1,3)-pyridazinacycloundecaphane-4-yl)-2,3-dimethylcyclopropane-1-carboxamide]
IC50 [1, 5]: 5.52 nM
IC50 [2]: 2.79 nM
IC50 [3, 5]: 6.04 nM
IC50 [4]: 7.39 nM

CCn1c(-c2cc(N3CCN(C)CC3)cnc2[C@H](C)OC)c2c3cc(ccc31)-c1csc(n1)C[C@H](Nc1nnc3ccc(C)cn13)C(=O)N1CCC[C@H](N1)C(=O)OCC(C)(C)C2 (atropisomer, axis not shown; (Ra)) [Compound Z434, (6^3S,4S,Z)-1^1-ethyl-(Ra)-1^2-(2-((S)-1-methoxyethyl)-5-(4-methylpiperazin-1-yl)pyridin-3-yl)-10,10-dimethyl-4-((6-methyl-[1,2,4]triazolo[4,3-a]pyridin-3-yl)amino)-6^1,6^2,6^3,6^4,6^5,6^6-hexahydro-1^1H-8-oxa-2(4,2)-thiazola-1(5,3)-indola-6(1,3)-pyridazinacycloundecaphane-5,7-dione]
IC50 [1, 6]: 104 nM
IC50 ([2]; Homo sapiens, NCI-H441, 3 h): 17.5 nM
IC50 [3, 7]: 18.1 nM
IC50 ([4]; Homo sapiens, ASPC1, 3 h): 69.4 nM

CCn1c(-c2cc(N3CCN(C)CC3)cnc2[C@H](C)OC)c2c3cc(ccc31)-c1csc(n1)C[C@H](Nc1nnc3ccccn13)C(=O)N1CCC[C@H](N1)C(=O)OCC(C)(C)C2 (atropisomer, axis not shown; (Ra)) [Compound Z460, (6^3S,4S,Z)-4-([1,2,4]triazolo[4,3-a]pyridin-3-ylamino)-1^1-ethyl-(Ra)-1^2-(2-((S)-1-methoxyethyl)-5-(4-methylpiperazin-1-yl)pyridin-3-yl)-10-O-dimethyl-6^1,6^2,6^3,6^4,6^5,6^6-hexahydro-1^1H-8-oxa-2(4,2)-thiazola-1(5,3)-indola-6(1,3)-pyridazinacycloundecaphane-5,7-dione]
IC50 [1, 6]: 73.4 nM
IC50 ([2]; Homo sapiens, NCI-H441, 3 h): 6.3 nM
IC50 [3, 7]: 14.3 nM
IC50 ([4]; Homo sapiens, ASPC1, 3 h): 26.2 nM

CO[C@@H](C)c1ncc(OCCN2CCOC3(CC3)C2)cc1-c1c2c3cc(ccc3n1C(C)C)-c1csc(n1)C[C@H](NC(=O)[C@H]1[C@H](C)[C@@H]1C)C(=O)N1CCC[C@H](N1)C(=O)OCC1(CC1)C2 (atropisomer, axis not shown; (Ra)) [Compound Z462, (1r,2R,3S)—N-((3′S,4′S,Z)-2′-(5-(2-(4-oxa-7-azaspiro[2,5]octan-7-yl)ethoxy)-(Ra)-2-((S)-1-methoxyethyl)pyridin-3-yl)-1′-isopropyl 5′,7′-dioxospiro[cyclopropane-1,10′-8-oxa-2(4,2)-thiazola-1(5,3)-indola-6(1,3)-pyridazinacycloundecaphan]-4′-yl)-2,3-dimethylcyclopropane-1-carboxamide]
IC50 [1, 6]: 2.72 nM
IC50 ([2]; Homo sapiens, NCI-H441, 3 h): 1.12 nM
IC50 [3, 7]: 1.37 nM
IC50 ([4]; Homo sapiens, ASPC1, 3 h): 1.6 nM

CCn1c(-c2cc(OCC3(N4CCCOCC4)CC3)cnc2[C@H](C)OC)c2c3cc(ccc31)-c1csc(n1)C[C@H](NC(=O)[C@H]1[C@H](C)[C@@H]1C)C(=O)N1CCC[C@H](N1)C(=O)OCC1(CC1)C2 (atropisomer, axis not shown; (Ra)) [Compound Z464, (1r,2R,3,S)—N-((3′S,4′S,Z)—(Ra)-2′-(5-((1-(1,4-oxazepan-4-yl)cyclopropyl)methoxy)-2-((S)-1-methoxyethyl)pyridin-3-yl)-1′-ethyl-5′,7′-dioxospiro[cyclopropane-1,10′-8-oxa-2(4,2)-thiazola-1(5,3)-indola-6(1,3)-pyridazinacycloundecaphan]-4′-yl)-2,3-dimethylcyclopropane-1-carboxamide]
IC50 [1, 5]: 15 nM
IC50 [2]: 1.9 nM
IC50 [3, 5]: 6.32 nM
IC50 [4]: 3.03 nM

CCn1c(-c2cc(OCCN3CCS(=O)(=O)CC3)cnc2[C@H](C)OC)c2c3cc(ccc31)-c1csc(n1)C[C@H](NC(=O)[C@H]1[C@H](C)[C@@H]1C)C(=O)N1CCC[C@H](N1)C(=O)OCC(C)(C)C2 (atropisomer, axis not shown; (Ra)) [Compound Z469, (0r,2R,3S)—N-((6^3S,4S,Z)—(Ra)-1^2-(5-(2-(1,1-dioxidothiomorpholino)ethoxy)-2-((S)-1-methoxyethyl)pyridin-3-yl)-1^1-ethyl-10,10-dimethyl-5,7-dioxo-6^1,6^2,6^3,6^4,6^5,6^6-hexahydro-1^1H-8-oxa-2(4,2)-thiazola-1(5,3)-indola-6(1,3)-pyridazinacycloundecaphane-4-yl)-2,3-dimethylcyclopropane-1-carboxamide]
IC50 [1, 6]: 0.24 nM
IC50 [2]: 0.35 nM
IC50 [3, 7]: 0.09 nM
IC50 [4]: 0.11 nM

CCn1c(-c2cc(CC3(N4CCS(=O)(=O)CC4)CC3)cnc2[C@H](C)OC)c2c3cc(ccc31)-c1csc(n1)C[C@H](NC(=O)[C@H]1[C@H](C)[C@@H]1C)C(=O)N1CCC[C@H](N1)C(=O)OCC(C)(C)C2 (atropisomer, axis not shown; (Ra)) [Compound Z484, (1r,2R,3S)—N-((6^3S,4S,Z)—(Ra)-1^2-(5-((1-(1,1-dioxidothiomorpholino)cyclopropyl)methyl)-2-((S)-1-methoxyethyl)pyridin-3-yl)-1^1-ethyl-10,10-dimethyl-5,7-dioxo-6^1,6^2,6^3,6^4,6^5,6^6-hexahydro-1^1H-8-oxa-2(4,2)-thiazola-1(5,3)-indola-6(1.3)-pyridazinacycloundecaphane-4-yl)-2,3-dimethylcyclopropane-1-carboxamide]
IC50 [1, 6]: 3.19 nM
IC50 ([2]; Homo sapiens, NCI-H441, 3 h): 0.67 nM
IC50 [3, 7]: 0.59 nM
IC50 ([4]; Homo sapiens, ASPC1, 3 h): 1.3 nM

CCn1c(-c2cc(CCN3CCS(=O)(=O)CC3)cnc2[C@H](C)OC)c2c3cc(ccc31)-c1csc(n1)C[C@H](NC(=O)[C@H]1[C@H](C)[C@@H]1C)C(=O)N1CCC[C@H](N1)C(=O)OCC(C)(C)C2 (atropisomer, axis not shown; (Ra)) [Compound Z485, (1r,2R,3S)—N-((6^3S,4S,Z)—(Ra)-1^2-(5-(2-(1,1-dioxidothiomorpholino)ethyl)-2-((S)-1-methoxyethyl)pyridin-3-yl)-11-ethyl-10,10-dimethyl-5,7-dioxo-6^1,6^2,6^3,6^4,6^5,6^6-hexahydro-1^1H-8-oxa-2(4,2)-thiazola-1(5,3)-indola-6(1,3)-pyridazinacycloundecaphane-4-yl)-2,3-dimethylcyclopropane-1-carboxamide]
IC50 [1, 6]: 0.96 nM
IC50 ([2]; Homo sapiens, NCI-H441, 3 h): 0.35 nM
IC50 [3, 7]: 0.42 nM
IC50 ([4]; Homo sapiens, ASPC1, 3 h): 0.73 nM

CCn1c(-c2cc(OCC3(CN4CCCOCC4)CC3)cnc2[C@H](C)OC)c2c3cc(ccc31)-c1csc(n1)C[C@H](NC(=O)[C@H]1[C@H](C)[C@@H]1C)C(=O)N1CCC[C@H](N1)C(=O)OCC1(CC1)C2 (atropisomer, axis not shown; (Ra)) [Compound Z498]
IC50 [1, 6]: 8.99 nM
IC50 ([2]; Homo sapiens, NCI-H441, 3 h): 4.06 nM
IC50 [3, 7]: 5.58 nM
IC50 ([4]; Homo sapiens, ASPC1, 3 h): 10.9 nM

[2H]C([2H])([2H])C1(C([2H])([2H])[2H])COC(=O)[C@@H]2CCCN(N2)C(=O)[C@@H](NC(=O)[C@H]2[C@H](C)[C@@H]2C)Cc2nc(cs2)-c2ccc3c(c2)c(c(-c2cc(OCCN4CCOC5(CC5)C4)cnc2[C@H](C)OC)n3CC)C1 (atropisomer, axis not shown; (Ra)) [Compound Z501, (1r,2R,3S)—N-((6^3S,4S,Z)-1^1-ethyl-(Ra)-1^2-(5-(2-(4-oxa-7-azaspiro[2.5]octan-7-yl)ethoxy)-2-((S)-1-methoxyethyl)pyridin-3-yl)-10,10-bis(methyl-d3)-5,7-dioxo-6^1,6^2,6^3,6^4,6^5,6^6-hexahydro-11H-8-oxo-2(4,2)-thiazola-1(5,3)-indola-6(1,3)-pyridazinacycloundecaphane-4-yl)-2,3-dimethylcyclopropane-1-carboxamide]
IC50 [1, 6]: 0.52 nM
IC50 ([2]; Homo sapiens, NCI-H441, 3 h): 0.22 nM
IC50 [3, 7]: 0.22 nM
IC50 ([4]; Homo sapiens, ASPC1, 3 h): 0.35 nM

Source: US20260234165A1, “MACROCYCLIC COMPOUNDS, PREPARATION METHOD THEREFOR, AND USE THEREOF” (GENFLEET THERAPEUTICS (SHANGHAI) INC., priority 2004, published 2026)
